Measured values taken from PubChem BioAssay AID652214 (Broad Institute, 2013).
Activity calls are given as the source filed them.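 How the source made its calls: active means AC50 of 30 µM or below; inactive means AC50 above 30 µM.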

biological target: Thioredoxin (Homo sapiens) (UniProt P10599); assay: TRX disulfide reduction blockade – biochemical, insulin turbidity, dry powder samples, counter-screen for PDI inhibitor project, dose response (AID 652214); conditions: purified thioredoxin, insulin reduction turbidity OD650
Sequence (P10599 whole entry, looked up): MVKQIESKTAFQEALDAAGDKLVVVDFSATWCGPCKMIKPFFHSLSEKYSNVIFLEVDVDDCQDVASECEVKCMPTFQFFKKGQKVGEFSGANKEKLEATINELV

Compound | AC50
O=C(NC1CCCC1)C1(CCOc2ccccc2)CCN(Cc2ccc(O)c(Cl)c2)CC1 | > 30 µM (inactive)
C/C1=C\[C@@H](O)C(C)(C)CCCC2(C)OC2C[C@@H]1OC(=O)c1ccc(O)cc1 (some centres not stated) | 3 µM
CCN(C)C(=O)C1(CCOc2ccccc2)CCN(Cc2ccc(O)c(Cl)c2)CC1 | > 30 µM (inactive)
CCOC(=O)C1(CCOc2ccccc2)CCN(Cc2ccc(O)c(Cl)c2)CC1 | > 30 µM (inactive)
CC(C)OC(=O)C1(CCOc2ccccc2)CCN(Cc2ccc(O)c(Cl)c2)CC1 | > 30 µM (inactive)
CC(C)(C)OC(=O)C1(CCOc2ccccc2)CCN(Cc2ccc(O)c(Cl)c2)CC1 | > 30 µM (inactive)
CCOC(=O)C1(CCOc2ccccc2)CCN(C(=O)c2ccc(O)c(Cl)c2)CC1 | > 30 µM (inactive)
CCOC(=O)c1c(CN2CCN(CCO)CC2)n(-c2ccccc2)c2cc(Br)c(O)cc12 | > 30 µM (inactive)
O=C(Nc1ccccc1)C1(CCOc2ccccc2)CCN(Cc2ccc(O)c(Cl)c2)CC1 | > 30 µM (inactive)
CCOC(=O)C1(CCOc2ccccc2)CCN(Cc2ccc(OC)c(Cl)c2)CC1 | > 30 µM (inactive)
C/C1=C\C[C@H](OC(=O)c2ccc(O)cc2)/C(C)=C/[C@@H](O)C(C)(C)CCC1 | > 30 µM (inactive)
CCOC(=O)C1(CCOc2ccccc2)CCN(Cc2ccc(O)cc2)CC1 | > 30 µM (inactive)
